Values after ≈ are worked out from the molar mass of the structure shown. Active and inactive are the calls of the source. The calls are words filed in the database; no cut-off is given here.
Assays:
[1] = tested on: Mycobacterium tuberculosis; experiment: Antitubercular activity against Mycobacterium tuberculosis H37Rv assessed as inhibition of bacterial growth incubated for 5 days by Alamar Blue based assay; type: functional, organism-based; conditions: 120 h
[2] = tested on: Escherichia coli; experiment: Antibacterial activity against Escherichia coli assessed as inhibition of bacterial growth upto 200 microg/ml incubated for 5 days by Alamar Blue based assay; type: functional, organism-based; conditions: dose <= 200.0 µg/ml, time 5.0 day
[3] = tested on: Mycolicibacterium smegmatis; experiment: Antimycobacterial activity against Mycobacterium smegmatis assessed as inhibition of bacterial growth incubated for 5 days by Alamar Blue based assay; type: functional, organism-based; conditions: 120 h
[4] = tested on: Mycobacterium tuberculosis; experiment: Antitubercular activity against Mycobacterium tuberculosis H37Rv assessed as inhibition of bacterial growth incubated for 5 days in presence of rifampicin by Alamar Blue based assay; type: functional, organism-based; conditions: time 5.0 day
[5] = tested on: Mycobacterium tuberculosis; experiment: Antitubercular activity against Mycobacterium tuberculosis H37Rv assessed as inhibition of bacterial growth incubated for 5 days in presence of isoniazid by Alamar Blue based assay; type: functional, organism-based; conditions: time 5.0 day
[6] = target: T1, Long-chain-fatty-acid--AMP ligase FadD32 (Mycobacterium tuberculosis (strain ATCC 25618 / H37Rv)) (UniProt O53580); experiment: Inhibition of Mycobacterium tuberculosis H37Rv recombinant FadD32 upto 200 uM in presence of lauric acid by Michaelis-Menten plot analysis
T1 sequence (whole entry): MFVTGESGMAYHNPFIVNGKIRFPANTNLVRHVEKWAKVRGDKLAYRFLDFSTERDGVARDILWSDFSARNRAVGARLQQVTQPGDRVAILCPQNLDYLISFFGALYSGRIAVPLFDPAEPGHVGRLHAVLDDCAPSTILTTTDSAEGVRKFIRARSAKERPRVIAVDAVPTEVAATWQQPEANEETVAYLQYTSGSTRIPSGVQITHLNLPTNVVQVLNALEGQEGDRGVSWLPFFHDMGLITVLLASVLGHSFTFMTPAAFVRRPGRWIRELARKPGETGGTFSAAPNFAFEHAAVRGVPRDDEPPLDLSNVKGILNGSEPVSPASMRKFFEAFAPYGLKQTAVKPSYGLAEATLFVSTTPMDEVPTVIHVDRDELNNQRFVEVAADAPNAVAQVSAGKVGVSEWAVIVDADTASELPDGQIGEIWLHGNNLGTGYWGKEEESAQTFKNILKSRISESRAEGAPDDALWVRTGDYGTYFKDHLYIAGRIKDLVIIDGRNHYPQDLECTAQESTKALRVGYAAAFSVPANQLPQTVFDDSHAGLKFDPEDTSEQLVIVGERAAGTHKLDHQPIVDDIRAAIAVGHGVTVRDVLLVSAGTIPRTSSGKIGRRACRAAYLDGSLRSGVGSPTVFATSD

[7] = target: T2, Long-chain-fatty-acid--AMP ligase FadD32 (Mycobacterium tuberculosis (strain ATCC 25618 / H37Rv), UniProt O53580); experiment: Uncompetitive inhibition of Mycobacterium tuberculosis H37Rv recombinant FadD32 assessed as inhibition constant in presence of lauric acid by Lineweaver-burk plot analysis
T2 sequence (O53580 whole entry): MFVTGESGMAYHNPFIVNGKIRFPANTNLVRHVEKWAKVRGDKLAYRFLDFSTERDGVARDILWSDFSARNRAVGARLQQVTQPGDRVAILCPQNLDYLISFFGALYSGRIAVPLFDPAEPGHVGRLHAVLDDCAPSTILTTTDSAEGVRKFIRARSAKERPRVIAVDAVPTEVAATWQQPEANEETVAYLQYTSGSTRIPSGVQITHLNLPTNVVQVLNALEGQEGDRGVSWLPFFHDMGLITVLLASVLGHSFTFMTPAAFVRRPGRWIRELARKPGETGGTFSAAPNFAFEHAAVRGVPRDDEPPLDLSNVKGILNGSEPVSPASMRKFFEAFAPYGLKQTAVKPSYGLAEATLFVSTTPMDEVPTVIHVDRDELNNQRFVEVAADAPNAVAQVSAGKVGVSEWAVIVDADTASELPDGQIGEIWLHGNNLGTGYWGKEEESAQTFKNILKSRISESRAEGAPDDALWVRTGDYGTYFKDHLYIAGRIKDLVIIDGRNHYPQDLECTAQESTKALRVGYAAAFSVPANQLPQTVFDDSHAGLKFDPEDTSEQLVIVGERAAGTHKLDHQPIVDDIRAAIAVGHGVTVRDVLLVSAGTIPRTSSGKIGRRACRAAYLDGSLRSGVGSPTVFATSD

[8] = target: T2, Long-chain-fatty-acid--AMP ligase FadD32; experiment: Partial noncompetitive inhibition of Mycobacterium tuberculosis H37Rv recombinant FadD32 assessed as inhibition constant in presence of ATP by Lineweaver-burk plot analysis
[9] = target: T3, Long-chain-fatty-acid--AMP ligase FadD28 (Mycobacterium tuberculosis) (UniProt P9WQ59); experiment: Inhibition of Mycobacterium tuberculosis H37Rv recombinant fadD28 at 200 uM relative to control
T3 sequence (whole entry): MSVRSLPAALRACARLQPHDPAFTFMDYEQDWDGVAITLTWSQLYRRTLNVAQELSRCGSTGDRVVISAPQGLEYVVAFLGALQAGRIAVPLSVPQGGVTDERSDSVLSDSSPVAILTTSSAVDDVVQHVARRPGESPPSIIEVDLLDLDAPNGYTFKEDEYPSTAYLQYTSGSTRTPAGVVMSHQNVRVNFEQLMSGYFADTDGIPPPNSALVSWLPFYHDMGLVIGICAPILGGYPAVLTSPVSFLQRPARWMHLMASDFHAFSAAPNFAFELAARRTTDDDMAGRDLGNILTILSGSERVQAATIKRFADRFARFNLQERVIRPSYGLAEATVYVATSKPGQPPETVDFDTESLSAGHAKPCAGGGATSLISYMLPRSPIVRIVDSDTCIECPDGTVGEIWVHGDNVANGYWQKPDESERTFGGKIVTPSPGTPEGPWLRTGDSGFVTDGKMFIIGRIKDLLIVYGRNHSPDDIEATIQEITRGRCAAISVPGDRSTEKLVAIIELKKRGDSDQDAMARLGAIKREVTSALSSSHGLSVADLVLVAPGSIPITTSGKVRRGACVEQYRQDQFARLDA

[10] = target: T1, Long-chain-fatty-acid--AMP ligase FadD32 (Mycobacterium tuberculosis (strain ATCC 25618 / H37Rv)); experiment: Inhibition of Mycobacterium tuberculosis H37Rv recombinant fadD32 at 200 uM relative to control
[11] = tested on: RAW264.7; experiment: Cytotoxicity against mouse RAW264.7 cells assessed as cell viability at 25 microg/ml incubated for 24 hrs by MTT assay; type: toxicity, cell-based; conditions: raw264.7, 24 h, dose 25 µg/ml
[12] = tested on: THP-1; experiment: Cytotoxicity against PMA-differentiated human THP-1 cells assessed as reduction in cell viability at 25 microg/ml incubated for 24 hrs by MTT assay; type: toxicity, cell-based; conditions: thp-1, 24 h, dose 25 µg/ml
[13] = tested on: Mycobacterium tuberculosis; experiment: Antitubercular activity against Mycobacterium tuberculosis infected in mouse RAW264.7 cells assessed as reduction in colony forming units at 5 to 9 microg/ml incubated for 48 hrs; type: functional, organism-based; conditions: dose 5-9 µg/ml
[14] = tested on: Mycobacterium tuberculosis; experiment: Antitubercular activity against Mycobacterium tuberculosis infected in human THP-1 cells assessed as reduction in colony forming units at 5 to 9 microg/ml incubated for 48 hrs; type: functional, organism-based; conditions: dose 5-9 µg/ml
[15] = tested on: Mycobacterium tuberculosis; experiment: Antitubercular activity against Mycobacterium tuberculosis infected in mouse RAW264.7 cells assessed as reduction in colony forming units at 5 to 9 microg/ml incubated for 48 hrs in presence of rifampin; type: functional, organism-based; conditions: dose 5-9 µg/ml
[16] = tested on: Mycobacterium tuberculosis; experiment: Antitubercular activity against Mycobacterium tuberculosis infected in mouse RAW264.7 cells assessed as reduction in colony forming units at 5 to 9 microg/ml incubated for 48 hrs in presence of isoniazid; type: functional, organism-based; conditions: dose 5-9 µg/ml
[17] = tested on: Mycobacterium tuberculosis; experiment: Antitubercular activity against Mycobacterium tuberculosis infected in mouse RAW264.7 cells assessed as reduction in colony forming units at 5 to 9 microg/ml incubated for 48 hrs in presence of ethambutol; type: functional, organism-based; conditions: dose 5-9 µg/ml
[18] = tested on: Mycobacterium tuberculosis; experiment: Antitubercular activity against Mycobacterium tuberculosis infected in human THP-1 cells assessed as reduction in colony forming units at 5 to 9 microg/ml incubated for 48 hrs in presence of rifampin; type: functional, organism-based; conditions: dose 5-9 µg/ml
[19] = tested on: Mycobacterium tuberculosis; experiment: Antitubercular activity against Mycobacterium tuberculosis infected in human THP-1 cells assessed as reduction in colony forming units at 5 to 9 microg/ml incubated for 48 hrs in presence of isoniazid; type: functional, organism-based; conditions: dose 5-9 µg/ml
[20] = tested on: Mycobacterium tuberculosis; experiment: Antitubercular activity against Mycobacterium tuberculosis infected in human THP-1 cells assessed as reduction in colony forming units at 5 to 9 microg/ml incubated for 48 hrs in presence of ethambutol; type: functional, organism-based; conditions: dose 5-9 µg/ml
[21] = tested on: Mycobacterium tuberculosis; experiment: Downregulation of esxH mRNA expression in Mycobacterium tuberculosis assessed as fold change by qRT-PCR analysis; type: functional
[22] = tested on: Mycobacterium tuberculosis; experiment: Downregulation of papA mRNA expression in Mycobacterium tuberculosis assessed as fold change by qRT-PCR analysis; type: functional
[23] = tested on: Mycobacterium tuberculosis; experiment: Downregulation of hspX mRNA expression in Mycobacterium tuberculosis assessed as fold change by qRT-PCR analysis; type: functional
[24] = tested on: Mycobacterium tuberculosis; experiment: Downregulation of fadD28 mRNA expression in Mycobacterium tuberculosis assessed as fold change by qRT-PCR analysis; type: functional
[25] = tested on: Mycobacterium tuberculosis; experiment: Downregulation of fadD32 mRNA expression in Mycobacterium tuberculosis assessed as fold change by qRT-PCR analysis; type: functional
[26] = tested on: Mycobacterium tuberculosis; experiment: Downregulation of efpA mRNA expression in Mycobacterium tuberculosis assessed as fold change by qRT-PCR analysis; type: functional
[27] = tested on: Mycobacterium tuberculosis; experiment: Downregulation of murE mRNA expression in Mycobacterium tuberculosis assessed as fold change by qRT-PCR analysis; type: functional
[28] = tested on: Mycobacterium tuberculosis; experiment: Downregulation of ctpC mRNA expression in Mycobacterium tuberculosis assessed as fold change by qRT-PCR analysis; type: functional
[29] = tested on: Mycobacterium tuberculosis; experiment: Downregulation of groES mRNA expression in Mycobacterium tuberculosis assessed as fold change by qRT-PCR analysis; type: functional
[30] = tested on: Mycobacterium tuberculosis; experiment: Downregulation of IspD mRNA expression in Mycobacterium tuberculosis assessed as fold change by qRT-PCR analysis; type: functional
[31] = tested on: Mycobacterium tuberculosis; experiment: Downregulation of PKS13 mRNA expression in Mycobacterium tuberculosis assessed as fold change by qRT-PCR analysis; type: functional
[32] = tested on: Mycobacterium tuberculosis; experiment: Downregulation of CarD mRNA expression in Mycobacterium tuberculosis assessed as fold change by qRT-PCR analysis; type: functional
[33] = Toxicity in BALB/c mouse assessed as animal survival at 2.5 mg/kg, ip measured for 14 days; type: organism-based; conditions: in vivo, 336 h, time 14 day
[34] = Toxicity in BALB/c mouse assessed as body weight loss at 2.5 mg/kg, ip measured for 14 days; type: organism-based; conditions: in vivo, 336 h, time 14 day
[35] = Toxicity in BALB/c mouse assessed as change in SGPT level in serum at 2.5 mg/kg, ip measured for 14 days; type: organism-based; conditions: in vivo, 336 h, time 14 day
[36] = Toxicity in BALB/c mouse assessed as change in SGOT level in serum at 2.5 mg/kg, ip measured for 14 days; type: organism-based; conditions: in vivo, 336 h, time 14 day
[37] = Toxicity in BALB/c mouse assessed as change in creatine level in serum at 2.5 mg/kg, ip measured for 14 days; type: organism-based; conditions: in vivo, 336 h, time 14 day
[38] = Toxicity in BALB/c mouse assessed as change in ALP level in serum at 2.5 mg/kg, ip measured for 14 days; type: organism-based; conditions: in vivo, 336 h, time 14 day
[39] = Toxicity in BALB/c mouse assessed as change in BUN level in serum at 2.5 mg/kg, ip measured for 14 days; type: organism-based; conditions: in vivo, 336 h, time 14 day
[40] = tested on: Mycobacterium tuberculosis; experiment: Antitubercular activity against Mycobacterium tuberculosis H37Rv infected in BALB/c mouse chronic model assessed as reduction in tubercular granulomas at 2.5 mg/kg, ip measured after 4 weeks by H and E staining based analysis; type: functional, organism-based
[41] = tested on: Mycobacterium tuberculosis; experiment: Antitubercular activity against Mycobacterium tuberculosis H37Rv infected in BALB/c mouse chronic model assessed as reduction in reduction in mycobacterial burden in lung at 2.5 mg/kg, ip measured after 21 to 25 days by H and E staining based analysis; type: functional, organism-based; conditions: time 21-25 day

## Oc1c(Br)cc(Br)cc1-c1cc(C(F)(F)F)no1
[1]
  IC50: 4.8 µg/mL (≈ 12.4 µM)
[2]
  Activity: inactive
[3]
  IC50: 20.8 µg/mL (≈ 53.8 µM)
[4]
  Activity: Active
[5]
  Activity: Active
[6]
  inhibition: Active
[7]
  Ki: 48.1 µM
[8]
  Ki: 55.3 µM
[9]
  inhibition: 50%
[10]
  inhibition: 95%
[11]
  Activity: Non-toxic
[12]
  Activity: Non-toxic
[13]
  Activity: Active
[14]
  Activity: Active
[15]
  Activity: Active
[16]
  Activity: Active
[17]
  Activity: Active
[18]
  Activity: Active
[19]
  Activity: Active
[20]
  Activity: Active
[21]
  fold change (FC): 2
[22]
  fold change (FC): 2
[23]
  fold change (FC): 2
[24]
  fold change (FC): 2
[25]
  fold change (FC): 2
[26]
  fold change (FC): 2
[27]
  fold change (FC): 2
[28]
  fold change (FC): 2
[29]
  fold change (FC): 2
[30]
  fold change (FC): 2
[31]
  fold change (FC): 2
[32]
  fold change (FC): 2
[33]
  Activity: Non-toxic
[34]
  Activity: Non-toxic
[35]
  Activity: Non-toxic
[36]
  Activity: Non-toxic
[37]
  Activity: Non-toxic
[38]
  Activity: Non-toxic
[39]
  Activity: Non-toxic
[40]
  Activity: Active
[41]
  Activity: Active

## Cc1ccc(O)c(-c2cc(C(F)(F)C(F)F)no2)c1
[1]
  IC50: 12.8 µg/mL (≈ 46.5 µM)
